Source: patent US20220151979A1, “COMPOSITION FOR PREVENTION OR TREATMENT OF CARDIOVASCULAR AND METABOLIC DISEASE COMPRISING NORANHYDROICARITIN” (SEOUL NATIONAL UNIVERSITY HOSPITAL, priority 2019, published 2022)

What was measured:
atherosclerotic plaque = test: Gross plaque imaging in PCSK9-injected mouse carotid-ligation arteriosclerosis model; assay type: in vivo; settings: AAV-PCSK9 virus, high-fat diet, 10 μg/g/day, 3 weeks after ligation, vehicle group about 45%
Experimental: By ligation to the carotid artery of 6- to 8-week-old mice, mechanical stress was applied to induce inflammation, thrombosis, oxidative stress, and shear stress, and the function and structure of the external carotid (EC) were changed to prepare an atherosclerosis model (FIG. 13). Specifically, ligation was performed on the left common carotid artery (LCA) after abdominal anesthesia by performing carotid artery ligation on mice fed a high-fat diet for one week. Partial ligation of three branches in the LCA, the external carotid artery (ECA), the internal carotid artery (ICA), and the occipital artery (OA) was performed. At this time, ICA and OA were ligated, and ECA was ligated separately. In mice subjected to ligation, the amount of blood flow to the heart decreased and the direction of blood flow changed, whereby an atherosclerosis model was prepared. Carotid artery ligation was performed one week after injection of AAV-PCSK9 Virus (1×10^11 IFU/mL) and noranhydroicaritin (10 μg/g/day). After 3 weeks of ligation, it was confirmed whether the atherosclerosis model was completed, and gross plaque imaging and immunofluorescence were performed to confirm the arteriosclerosis inhibitory effect of noranhydroicaritin.

SREBP 1 promoter = test: SREBP 1 promoter-reporter luciferase assay in HEK293T cells; assay type: cell-based, human; settings: pGL4.14-SREBP-transfected HEK293T cells, 18 hours, compared to control
Experimental: In order to confirm the SREBP gene expression inhibitory effect of noranhydroicaritin, HEK293T cells were treated with noranhydroicaritin and kaempferol, and it was confirmed whether the expression of SREBP was inhibited through a luciferase assay.
i) A primer was prepared to contain KpnI and XhoI restriction enzyme sites in the SREBP 1 and 2 promoter gene region, and then PCR (polymerase chain reaction) and electrophoresis on an agarose gel were performed to isolate SREBP promoter region DNA. A pGL4.14-[luc2/Hygro] vector containing a firefly luciferase as a reporter gene was treated with the same restriction enzymes (KpnI and XhoI), and then isolated via agarose gel electrophoresis and gel extraction. The purely isolated SREBP promoter gene region and pGL4.14-[luc2/Hygro] vector were reacted for 1 hour using In-fusion DNA ligase (Takara), and then transformed into E. coli to prepare a promoter-reporter construct in which the SREBP promoter was inserted, and this was named pGL4.14-SREBP.
ii) In order to measure the transcriptional activity of the SREBP promoter gene, HEK293T cells were transfected with pGL4.14-SREBP, and then the luciferase activity of the cell extract was measured. […] Thereafter, the luciferase activity was measured by the method of Example 6. […]

PCSK9 = test: Immunoblot of PCSK9 in HepG2 cells; assay type: cell-based, human; settings: HepG2 cells, 5, 10, 20 μM
Experimental: In order to confirm the effect of noranhydroicaritin to inhibit PCSK9 expression and increase LDLR expression, immunoblotting targeting PCSK9 and LDLR was performed and the expression levels were compared. β-Actin was used as a control.
In a 100 mm Petri dish, 1×10^6 HepG2 cells were aliquoted and treated with noranhydroicaritin at various concentrations (5 μM, 10 μM, and 20 μM), and then the cells were removed from the cell-culture dish and homogenized using a protein extraction solution (NP40, ELPIS BIOTECH, Korea) containing a protease inhibitor cocktail (Roche).
In order to prepare the total protein, the cells were extracted in RIPA lysis buffer (50 mM Tris-HCl (pH 7.4), 150 mM NaCl, 5 mM EDTA, 5 mM EGTA, 5 mM sodium fluoride, 2 mM sodium orthovanadate, 1% NP-40, 0.1% sodium dodecyl sulfate [SDS], 1 mM phenylmethylsulfonyl fluoride [PMSF], and protein inhibitor cocktail [Roche Diagnostics, Heidelberg, Germany]). The protein concentration in the lysate was measured using the Bio-Rad dye-binding micro assay. For immunoblotting, 30 μg of cell lysate was isolated via SDS-polyacrylamide gel electrophoresis (PAGE). The proteins were transferred onto the Hybond-ECL nitrocellulose membrane (Amersham Biosciences, Buckinghamshire, UK). […] HRP-conjugated secondary antibodies were detected using an ECL detection reagent.

PPARα = PPARα expression in HepG2 cells (RealTime-PCR, immunohistochemistry); assay type: cell-based, human
Experimental: In order to confirm the effect of increasing the expression of PPARα and PPARγ of noranhydroicaritin, PCR using PPARα primers and immunohistochemistry targeting PPARα and PPARγ were performed to confirm the expression levels.
Using cDNA synthesized with RNA according to the method of Example 4, the quantities of PPARα mRNA and PPARγ mRNA were confirmed through RealTime-PCR analysis. The group treated only with DMSO was used as a negative control. For immunohistochemistry, HepG2 cells were attached to a slide chamber, then treated with noranhydroicaritin at 20 μM, and incubated. After fixation with formalin, the HepG2 cells were stained with antibodies targeting PPARα and PPARγ, and treated with DAPI to stain nuclei, and the degree of fluorescent expression was confirmed using a confocal microscope.

CC(C)=CCc1c(O)cc(O)c2c(=O)c(O)c(-c3ccc(O)cc3)oc12 [Noranhydroicaritin, noranhydroicaritin]
atherosclerotic plaque-formed area (atherosclerotic plaque): about 20%
SREBP 1 luciferase activity (SREBP 1 promoter): significantly decreased
PCSK9 expression (immunoblot) (PCSK9): decreased in a concentration-dependent manner
expression of PPARα (PPARα): increased in a concentration-dependent manner
